Measured values as given in ChEMBL document CHEMBL5226287, “Small organic molecules targeting the energy metabolism of Mycobacterium tuberculosis” (Eur J Med Chem, 2021).
In brackets after ≈: the same amount, converted by molar mass. Starred links: 1 amine or outer side, 2 acyl side, 3 side chain; linkers in the order of their positions; H or OH if unused. Non-standard residues stand in square brackets, D forms with d. Residues, ends and D or L forms follow the SMILES beside them. ξ: configuration not given here. *: point of attachment. X1 = CCC(=O)C[C@@H](O)C[C@@H](C)C[C@H](N[*:1])C(=O)[*:2]; Alaψ(CH2NMeCH2CH2OH) = C[C@@H](CN(C)CCO)N*; Decanoyl(2R-Me) = CCCCCCCC[C@@H](C)C(=O)*; Ile(3ξ) = CCC(C)[C@H](N)C(=O)O; ξβ3hP = O=C(O)CC1CCCN1; Aib = CC(C)(N)C(=O)O

How the values were obtained:
Assay type in all cases: functional
[1] = tested on: Mycobacterium tuberculosis; test: Antibacterial activity against rifampicin-resistant Mycobacterium tuberculosis H37Rv assessed as bacterial growth inhibition by microdilution method
[2] = tested on: Mycobacterium tuberculosis; test: Antibacterial activity against isoniazid-resistant Mycobacterium tuberculosis H37Rv assessed as bacterial growth inhibition by microdilution method
[3] = tested on: Mycobacterium tuberculosis; test: Antibacterial activity against drug resistant Mycobacterium tuberculosis H37Rv in the presence of ATP synthase
[4] = tested on: Mycobacterium tuberculosis; test: Antibacterial activity against Mycobacterium tuberculosis H37Rv resistant isoniazid by CLSI broth microdilution method; conditions: route inh
[5] = tested on: Mycobacterium tuberculosis; test: Antibacterial activity against Mycobacterium tuberculosis H37Rv resistant rifampicin by CLSI broth microdilution method
[6] = tested on: Mycobacterium tuberculosis; test: Antibacterial activity against Mycobacterium tuberculosis H37Rv overexpressed in ATP synthase
[7] = tested on: Mycobacterium tuberculosis; test: Antimycobacterial activity against Mycobacterium tuberculosis QcrBT mutant assessed as reduction in bacterial growth

With Cc1cn2c(C(=O)NCc3ccc(N4CCN(c5ccc(C(F)(F)F)cn5)CC4)c(F)c3)c(C)nc2s1 the MIC [1] was under 0.201 µM and the MIC [2] was under 0.506 µM.

CN(C)Cc1ccc(-c2cc3cc(Br)ccc3nc2OCc2ccncc2)cc1 was tested, and the MIC [3] was 0.48 µg/mL.

For CCCc1cc(OCC(=O)Nc2ccccc2OC)c2cc(OC)ccc2n1, the MIC [4] was 0.01 µg/mL (≈ 0.0263 µM) and the MIC [5] was 0.01 µg/mL (≈ 0.0263 µM).

For Cc1cn2c(C(=O)NCc3ccc(C(F)(F)F)cc3)c(C)nc2s1, the MIC [1] was under 0.04 µM and the MIC [2] was under 0.04 µM.

Work on CCCCCCCC[C@@H](C)C(=O)N1CCCC1CC(=O)N[C@@H](C[C@H](C)C[C@H](O)CC(=O)CC)C(=O)NC(C)(C)C(=O)NC(C)(C)C(=O)N[C@H](C(=O)N[C@H](C(=O)NC(C)(C)C(=O)NC(C)(C)C(=O)N[C@@H](C)CN(C)CCO)C(C)C)C(C)CC (stereo partly drawn) ({Decanoyl(2R-Me)}-[ξβ3hP][X1][Aib][Aib][Ile(3ξ)]V[Aib][Aib]-{Alaψ(CH2NMeCH2CH2OH)}) yielded an MIC [6] of 0.12 µg/mL (≈ 0.102 µM).

For CN(C)CCN1CCN(c2ccc(-c3cc4cc(Br)ccc4nc3OCc3ccc4ccccc4c3)cc2)CC1, the MIC [3] was 0.94 µg/mL.

With Cc1ccn2c(C(=O)NCc3cccc(OC(C)C)c3)c(C)nc2c1 the MIC90 [7] was over 20 µM.

Cc1ccn2c(C(=O)NCc3ccccc3)c(C)nc2c1 gave an MIC90 [7] of 6.5 µM (≈ 1.82 µg/mL).
